{"source": "ChEMBL document CHEMBL5465560", "about": "“Selectivity Literature for EUbOPEN Chemogenomic Library” (2024)", "key": {"[1]": {"target": "T1, Activin receptor type-1B (Homo sapiens) (UniProt P36896)", "T1 sequence (whole entry)": "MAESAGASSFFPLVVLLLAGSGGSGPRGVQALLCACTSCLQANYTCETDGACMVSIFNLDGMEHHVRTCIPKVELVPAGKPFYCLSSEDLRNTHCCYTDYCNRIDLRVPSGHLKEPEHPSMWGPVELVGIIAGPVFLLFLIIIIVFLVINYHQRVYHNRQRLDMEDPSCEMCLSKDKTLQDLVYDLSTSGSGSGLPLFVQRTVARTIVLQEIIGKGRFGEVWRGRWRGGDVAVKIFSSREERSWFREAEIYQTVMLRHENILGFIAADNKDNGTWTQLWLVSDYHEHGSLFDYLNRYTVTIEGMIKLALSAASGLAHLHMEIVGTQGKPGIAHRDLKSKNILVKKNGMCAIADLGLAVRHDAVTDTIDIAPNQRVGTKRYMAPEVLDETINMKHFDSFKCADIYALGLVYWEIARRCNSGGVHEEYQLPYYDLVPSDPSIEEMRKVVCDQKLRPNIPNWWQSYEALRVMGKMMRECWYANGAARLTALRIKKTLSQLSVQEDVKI", "test": "Selectivity interaction (Kinase panel (Z-LYTE Assay)) EUB0001632a ACVR1B", "conditions": "at 10 µM"}, "[2]": {"target": "Phosphatidylinositol 4-phosphate 5-kinase type-1 alpha (Homo sapiens) (UniProt Q99755)", "sequence (Q99755 whole entry)": "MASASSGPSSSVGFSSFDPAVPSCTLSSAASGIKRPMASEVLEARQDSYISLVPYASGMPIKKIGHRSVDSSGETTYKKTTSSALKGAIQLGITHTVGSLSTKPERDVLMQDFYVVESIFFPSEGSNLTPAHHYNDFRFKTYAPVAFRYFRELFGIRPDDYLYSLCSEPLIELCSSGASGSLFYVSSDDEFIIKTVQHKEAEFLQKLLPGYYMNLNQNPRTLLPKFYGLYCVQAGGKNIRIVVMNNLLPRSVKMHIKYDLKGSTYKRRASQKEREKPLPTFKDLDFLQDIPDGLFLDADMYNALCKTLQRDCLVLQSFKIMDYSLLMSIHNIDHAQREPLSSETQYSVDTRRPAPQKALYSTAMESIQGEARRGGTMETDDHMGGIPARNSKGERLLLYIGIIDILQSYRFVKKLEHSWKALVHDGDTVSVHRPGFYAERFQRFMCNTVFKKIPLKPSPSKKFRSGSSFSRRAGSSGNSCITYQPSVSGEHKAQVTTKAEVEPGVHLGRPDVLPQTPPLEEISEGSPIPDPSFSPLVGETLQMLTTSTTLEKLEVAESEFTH", "test": "Selectivity interaction (KinomeScan (DiscoverX)) EUB0000666a PIP5K1A", "conditions": "at 10 µM"}, "[3]": {"target": "Tyrosine-protein kinase SYK (Homo sapiens, UniProt P43405)", "test": "Selectivity interaction (Kinase panel (33PanQinase(R) Activity Assay)) EUB0000877a SYK"}, "[4]": {"target": "Serine/threonine-protein kinase Nek7 (Homo sapiens) (UniProt Q8TDX7)", "test": "Selectivity interaction (KinomeScan (DiscoverX)) EUB0000607a NEK7", "conditions": "at 10 µM"}, "[5]": {"target": "Tyrosine-protein kinase ABL1 (Homo sapiens, UniProt P00519)", "sequence (P00519 whole entry)": "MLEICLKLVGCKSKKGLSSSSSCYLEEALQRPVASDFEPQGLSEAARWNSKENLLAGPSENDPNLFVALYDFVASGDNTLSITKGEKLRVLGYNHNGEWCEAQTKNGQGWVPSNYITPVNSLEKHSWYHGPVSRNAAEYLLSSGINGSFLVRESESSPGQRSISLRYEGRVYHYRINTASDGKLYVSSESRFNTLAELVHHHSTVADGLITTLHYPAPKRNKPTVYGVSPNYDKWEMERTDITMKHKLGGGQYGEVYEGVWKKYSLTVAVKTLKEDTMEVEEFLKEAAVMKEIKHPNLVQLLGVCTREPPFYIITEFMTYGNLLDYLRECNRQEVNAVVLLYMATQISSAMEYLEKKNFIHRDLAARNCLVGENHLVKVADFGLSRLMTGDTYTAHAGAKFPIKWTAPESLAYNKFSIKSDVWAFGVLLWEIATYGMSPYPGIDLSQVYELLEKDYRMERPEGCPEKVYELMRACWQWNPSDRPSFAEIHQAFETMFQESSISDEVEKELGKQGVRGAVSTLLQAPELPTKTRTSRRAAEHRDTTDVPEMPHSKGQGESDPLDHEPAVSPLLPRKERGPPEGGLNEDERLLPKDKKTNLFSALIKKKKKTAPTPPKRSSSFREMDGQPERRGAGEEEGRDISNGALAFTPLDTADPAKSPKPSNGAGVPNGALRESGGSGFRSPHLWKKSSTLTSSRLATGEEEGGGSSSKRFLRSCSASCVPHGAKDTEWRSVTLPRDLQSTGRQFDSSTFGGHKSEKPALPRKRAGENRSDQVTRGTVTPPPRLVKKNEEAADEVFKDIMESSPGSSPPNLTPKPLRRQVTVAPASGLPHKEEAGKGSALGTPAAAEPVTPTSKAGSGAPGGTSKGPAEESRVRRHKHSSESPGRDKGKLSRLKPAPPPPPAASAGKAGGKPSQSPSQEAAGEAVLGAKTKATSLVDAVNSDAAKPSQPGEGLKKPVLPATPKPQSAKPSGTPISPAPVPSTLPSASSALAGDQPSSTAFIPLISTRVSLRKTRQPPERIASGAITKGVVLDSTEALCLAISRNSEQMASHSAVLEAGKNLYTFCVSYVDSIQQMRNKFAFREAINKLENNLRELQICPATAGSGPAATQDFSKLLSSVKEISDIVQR", "test": "Selectivity interaction (Kinase panel (Invitrogen)) EUB0000639a ABL1", "conditions": "at 200 nM"}, "[6]": {"target": "Serine/threonine-protein kinase pim-1 (Homo sapiens, UniProt P11309)", "sequence (P11309 whole entry, looked up)": "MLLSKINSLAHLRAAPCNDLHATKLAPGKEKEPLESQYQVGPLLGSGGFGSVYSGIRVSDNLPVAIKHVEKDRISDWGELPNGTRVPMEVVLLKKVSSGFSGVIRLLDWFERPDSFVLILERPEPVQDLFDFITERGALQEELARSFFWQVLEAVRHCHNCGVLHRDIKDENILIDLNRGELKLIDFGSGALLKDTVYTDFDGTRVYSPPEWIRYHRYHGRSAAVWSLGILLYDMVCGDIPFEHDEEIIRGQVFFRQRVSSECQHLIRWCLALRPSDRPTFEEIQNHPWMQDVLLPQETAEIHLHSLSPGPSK", "test": "Selectivity interaction (ProQinase) EUB0000171b PIM1"}, "Focal adhesion kinase 1": {"target": "Focal adhesion kinase 1 (Homo sapiens, UniProt Q05397)", "test": "Selectivity interaction (KinomeScan (DiscoverX)) EUB0000695a PTK2", "conditions": "at 100 nM"}, "[7]": {"target": "Phosphatidylinositol 4-phosphate 3-kinase C2 domain-containing subunit beta (Homo sapiens) (UniProt O00750)", "test": "Selectivity interaction (KinomeScan (DiscoverX)) EUB0000595a PIK3C2B", "conditions": "at 10 µM"}, "Misshapen-like kinase 1": {"target": "Misshapen-like kinase 1 (Homo sapiens, UniProt Q8N4C8)", "sequence (Q8N4C8 whole entry, looked up)": "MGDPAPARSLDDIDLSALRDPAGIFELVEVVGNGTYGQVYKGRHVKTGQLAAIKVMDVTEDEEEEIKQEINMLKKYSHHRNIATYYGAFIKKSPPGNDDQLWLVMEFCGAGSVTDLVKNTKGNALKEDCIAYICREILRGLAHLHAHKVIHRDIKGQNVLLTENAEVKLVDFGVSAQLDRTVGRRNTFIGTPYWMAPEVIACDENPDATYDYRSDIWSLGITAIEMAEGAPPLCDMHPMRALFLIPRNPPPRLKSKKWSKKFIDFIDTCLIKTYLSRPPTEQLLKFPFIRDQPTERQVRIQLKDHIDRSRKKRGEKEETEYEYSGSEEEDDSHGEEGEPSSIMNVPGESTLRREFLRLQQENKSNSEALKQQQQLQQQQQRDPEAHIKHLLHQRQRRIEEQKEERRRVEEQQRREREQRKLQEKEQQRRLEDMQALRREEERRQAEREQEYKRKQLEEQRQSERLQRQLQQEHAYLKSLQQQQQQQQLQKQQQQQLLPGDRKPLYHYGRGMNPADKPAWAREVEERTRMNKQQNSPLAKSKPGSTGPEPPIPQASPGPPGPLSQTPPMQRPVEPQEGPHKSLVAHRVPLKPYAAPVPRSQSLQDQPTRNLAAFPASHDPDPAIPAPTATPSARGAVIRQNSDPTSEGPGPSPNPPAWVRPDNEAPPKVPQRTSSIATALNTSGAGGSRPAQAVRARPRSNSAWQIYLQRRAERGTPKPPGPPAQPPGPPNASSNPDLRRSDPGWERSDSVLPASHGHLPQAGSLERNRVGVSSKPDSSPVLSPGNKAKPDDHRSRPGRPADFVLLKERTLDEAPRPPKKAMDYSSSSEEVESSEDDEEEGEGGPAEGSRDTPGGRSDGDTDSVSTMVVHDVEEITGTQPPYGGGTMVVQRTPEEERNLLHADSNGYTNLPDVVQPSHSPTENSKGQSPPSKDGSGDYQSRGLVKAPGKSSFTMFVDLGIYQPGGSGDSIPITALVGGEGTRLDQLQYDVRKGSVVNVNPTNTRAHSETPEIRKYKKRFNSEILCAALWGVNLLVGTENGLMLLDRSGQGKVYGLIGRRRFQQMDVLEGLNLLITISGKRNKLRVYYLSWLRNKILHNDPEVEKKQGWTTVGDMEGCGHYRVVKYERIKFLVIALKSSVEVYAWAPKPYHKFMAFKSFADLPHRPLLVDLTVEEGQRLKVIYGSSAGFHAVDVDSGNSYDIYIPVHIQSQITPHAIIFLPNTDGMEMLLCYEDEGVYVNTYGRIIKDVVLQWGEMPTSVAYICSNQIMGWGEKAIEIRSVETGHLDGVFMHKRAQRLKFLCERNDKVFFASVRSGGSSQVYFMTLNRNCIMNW", "test": "Selectivity interaction (KinomeScan (DiscoverX)) EUB0001049a MINK1", "conditions": "at 1 µM"}, "[8]": {"target": "Tyrosine-protein kinase ITK/TSK (Homo sapiens, UniProt Q08881)", "sequence (Q08881 whole entry)": "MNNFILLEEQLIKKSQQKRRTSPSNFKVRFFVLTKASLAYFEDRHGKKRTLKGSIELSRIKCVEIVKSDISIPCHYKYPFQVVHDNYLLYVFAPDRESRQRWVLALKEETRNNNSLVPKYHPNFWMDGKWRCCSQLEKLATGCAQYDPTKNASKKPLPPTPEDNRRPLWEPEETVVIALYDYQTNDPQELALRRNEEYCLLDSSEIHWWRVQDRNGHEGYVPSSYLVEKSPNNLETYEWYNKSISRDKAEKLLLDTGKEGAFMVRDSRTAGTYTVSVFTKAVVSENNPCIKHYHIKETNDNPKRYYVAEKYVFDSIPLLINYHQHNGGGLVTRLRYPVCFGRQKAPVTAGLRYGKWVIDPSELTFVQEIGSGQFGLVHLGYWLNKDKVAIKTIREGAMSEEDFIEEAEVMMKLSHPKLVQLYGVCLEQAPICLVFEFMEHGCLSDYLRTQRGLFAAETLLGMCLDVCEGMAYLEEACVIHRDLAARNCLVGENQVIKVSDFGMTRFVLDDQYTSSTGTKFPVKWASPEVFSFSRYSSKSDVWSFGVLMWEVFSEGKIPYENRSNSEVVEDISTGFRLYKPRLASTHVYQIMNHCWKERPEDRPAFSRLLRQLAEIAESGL", "test": "Selectivity interaction (Kinase counterscreening (biochemical assay)) EUB0000604a ITK"}, "[9]": {"target": "Homeodomain-interacting protein kinase 3 (Homo sapiens, UniProt Q9H422)", "test": "Selectivity interaction (Ambit KINOMEscan and KiNATiv profiling in Jurkat cells) EUB0000090b HIPK3", "assay_type": "cell-based", "conditions": "at 1 µM"}, "[10]": {"test_system": "Phosphatidylinositol 4,5-bisphosphate 3-kinase catalytic subunit alpha isoform (Homo sapiens), P42336 [C420R]", "sequence (P42336 whole entry C420R, canonical isoform)": "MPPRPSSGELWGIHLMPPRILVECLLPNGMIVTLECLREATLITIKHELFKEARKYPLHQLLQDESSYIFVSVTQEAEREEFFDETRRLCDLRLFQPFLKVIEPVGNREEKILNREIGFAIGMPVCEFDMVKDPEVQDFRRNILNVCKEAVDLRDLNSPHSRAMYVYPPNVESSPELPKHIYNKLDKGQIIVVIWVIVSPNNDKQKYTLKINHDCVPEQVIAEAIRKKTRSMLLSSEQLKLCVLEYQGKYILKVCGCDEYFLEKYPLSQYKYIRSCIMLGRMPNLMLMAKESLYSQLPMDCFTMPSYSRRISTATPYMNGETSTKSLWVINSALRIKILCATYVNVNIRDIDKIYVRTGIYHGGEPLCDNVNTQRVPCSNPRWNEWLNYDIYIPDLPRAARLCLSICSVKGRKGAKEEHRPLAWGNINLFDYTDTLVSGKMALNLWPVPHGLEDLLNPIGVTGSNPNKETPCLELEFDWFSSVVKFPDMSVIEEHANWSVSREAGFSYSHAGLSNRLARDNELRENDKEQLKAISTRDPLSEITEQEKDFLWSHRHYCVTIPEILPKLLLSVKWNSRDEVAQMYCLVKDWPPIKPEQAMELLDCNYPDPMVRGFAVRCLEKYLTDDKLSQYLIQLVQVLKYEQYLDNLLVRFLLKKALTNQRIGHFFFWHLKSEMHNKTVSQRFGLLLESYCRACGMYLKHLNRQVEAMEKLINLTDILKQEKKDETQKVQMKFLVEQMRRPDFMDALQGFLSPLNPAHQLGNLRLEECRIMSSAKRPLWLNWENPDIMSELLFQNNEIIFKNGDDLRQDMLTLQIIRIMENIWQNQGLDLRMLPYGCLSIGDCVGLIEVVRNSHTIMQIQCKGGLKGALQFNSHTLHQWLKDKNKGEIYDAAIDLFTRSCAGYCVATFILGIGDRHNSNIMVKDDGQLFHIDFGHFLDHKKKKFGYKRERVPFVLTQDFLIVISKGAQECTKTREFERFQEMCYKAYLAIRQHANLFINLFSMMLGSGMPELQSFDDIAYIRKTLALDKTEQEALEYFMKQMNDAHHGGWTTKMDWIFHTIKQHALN", "test": "(§1) Selectivity interaction (Ambit KINOMEscan) EUB0000092b PIK3CA", "conditions": "at 10 µM"}, "[11]": {"test_system": "Phosphatidylinositol 4,5-bisphosphate 3-kinase catalytic subunit alpha isoform (Homo sapiens), P42336 [E545K]", "sequence (P42336 whole entry E545K, canonical isoform)": "as the sequence (P42336 whole entry C420R, canonical isoform) above, with R420C, E545K counted along it", "test": "as §1", "conditions": "at 10 µM"}, "[12]": {"target": "T2, Cyclin-dependent kinase-like 2 (Homo sapiens) (UniProt Q92772)", "T2 sequence (whole entry)": "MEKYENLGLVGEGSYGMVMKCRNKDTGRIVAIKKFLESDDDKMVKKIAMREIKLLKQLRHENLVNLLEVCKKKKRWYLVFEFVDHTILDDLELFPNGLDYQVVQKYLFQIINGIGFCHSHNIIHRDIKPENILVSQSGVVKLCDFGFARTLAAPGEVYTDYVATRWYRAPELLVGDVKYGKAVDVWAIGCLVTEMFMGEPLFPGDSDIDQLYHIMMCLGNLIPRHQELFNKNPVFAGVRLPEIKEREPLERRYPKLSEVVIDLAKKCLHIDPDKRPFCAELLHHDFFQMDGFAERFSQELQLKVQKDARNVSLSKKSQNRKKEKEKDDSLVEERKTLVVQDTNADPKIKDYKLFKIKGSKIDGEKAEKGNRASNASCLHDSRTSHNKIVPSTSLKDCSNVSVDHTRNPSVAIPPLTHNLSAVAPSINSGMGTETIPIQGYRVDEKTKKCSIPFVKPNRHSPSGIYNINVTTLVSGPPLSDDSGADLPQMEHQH", "conditions": "at 10 µM"}, "[13]": {"target": "1-phosphatidylinositol 3-phosphate 5-kinase (Homo sapiens) (UniProt Q9Y2I7)", "test": "Selectivity interaction (ActivX KiNativ screen (ex vivo kinase selectivity in human PBMCs)) EUB0001619a PIKFYVE", "assay_type": "cell-based", "conditions": "PBMC, at 1 µM"}, "[14]": {"target": "T3, Membrane-associated tyrosine- and threonine-specific cdc2-inhibitory kinase (Homo sapiens) (UniProt Q99640)", "T3 sequence (whole entry)": "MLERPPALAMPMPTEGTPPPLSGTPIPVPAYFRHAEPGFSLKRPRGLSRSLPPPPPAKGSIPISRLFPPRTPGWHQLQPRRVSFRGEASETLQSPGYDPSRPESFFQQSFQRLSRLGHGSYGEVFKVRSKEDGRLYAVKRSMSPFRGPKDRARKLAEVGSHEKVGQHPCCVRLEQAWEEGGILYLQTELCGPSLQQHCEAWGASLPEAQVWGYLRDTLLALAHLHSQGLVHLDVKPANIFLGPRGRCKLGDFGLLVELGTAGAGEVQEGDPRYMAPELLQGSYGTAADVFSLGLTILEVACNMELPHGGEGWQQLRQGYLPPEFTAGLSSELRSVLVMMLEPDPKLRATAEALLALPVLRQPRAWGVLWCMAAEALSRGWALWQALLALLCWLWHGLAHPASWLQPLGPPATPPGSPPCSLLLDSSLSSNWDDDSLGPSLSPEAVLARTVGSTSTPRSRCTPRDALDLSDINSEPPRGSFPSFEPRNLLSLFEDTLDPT", "test": "Selectivity interaction (KinomeScan (DiscoverX)) EUB0001619a PKMYT1", "conditions": "at 1 µM"}}}
{"smiles": "Cn1cc(-n2cnc3c(NCc4nc5cc(Cl)c(Cl)cc5[nH]4)nc(N4CCOCC4)nc32)cn1", "values": [{"measurement": "% of control", "setting": "[1]", "value": 5.65, "unit": "%"}]}
{"smiles": "O=C(NOC[C@H](O)CO)c1ccc(F)c(F)c1Nc1ccc(I)cc1F", "values": [{"measurement": "% of control", "setting": "[2]", "value": 91, "unit": "%"}]}
{"smiles": "CCC(=O)N1CC[C@H](Nc2ncnc3c2CN(c2cnc(OC)c(C(F)(F)F)c2)CC3)C1", "note": "[LENIOLISIB]", "values": [{"measurement": "IC50", "setting": "[3]", "value": "> 10", "unit": "µM"}]}
{"smiles": "CNC(=O)Nc1ccc(-c2nc(N3CC4CCC(C3)O4)c3cnn(C4CCC5(CC4)OCCO5)c3n2)cc1", "values": [{"measurement": "% of control", "setting": "[4]", "value": 100, "unit": "%"}]}
{"smiles": "CC[C@@H]1[C@H](F)C(=O)N[C@@H]1COc1nccc2cc(C(N)=O)c(OC)cc12", "note": "[ZIMLOVISERTIB]", "values": [{"measurement": "% of inhibition", "setting": "[5]", "value": 2.34, "unit": "%"}]}
{"smiles": "C=CC(=O)Nc1cccc(C(=O)Nc2ccc(Nc3cc(-c4[nH]c(SC)nc4C)ccn3)cc2)c1", "values": [{"measurement": "% of control", "setting": "[6]; at 1 µM", "value": 87, "unit": "%"}, {"measurement": "% of control", "setting": "[6]; at 5 µM", "value": 67, "unit": "%"}]}
{"smiles": "Cc1cc(F)c(C(=O)Nc2cccc(-c3nncn3C(C)C)n2)cc1-n1cnc(C2CC2)c1", "values": [{"measurement": "% of control", "setting": "Focal adhesion kinase 1", "value": 100, "unit": "%"}]}
{"smiles": "COCC(=O)NC/C=C/c1ccc2ncnc(Nc3ccc(Oc4ccc(C)nc4)c(C)c3)c2c1", "note": "[CP-724714]", "values": [{"measurement": "% of control", "setting": "[7]", "value": 88, "unit": "%"}]}
{"smiles": "COc1cc(Nc2nc(C)cc(-c3cnn4nc(OC)ccc34)n2)cc(C(F)(F)F)c1", "values": [{"measurement": "% of control", "setting": "Misshapen-like kinase 1", "value": 79, "unit": "%"}]}
{"smiles": "Cc1cnc(Nc2ccc(F)cc2Cl)nc1-c1c[nH]c(C(=O)N[C@H](CO)c2cccc(Cl)c2)c1", "values": [{"measurement": "Ki", "setting": "[8]", "value": "> 4", "unit": "µM"}]}
{"smiles": "CN(C)C/C=C/C(=O)Nc1ccc(C(=O)N2CCCC(Nc3ncc(Cl)c(-c4c[nH]c5ccccc45)n3)C2)cc1", "note": "(configuration not stated)", "values": [{"measurement": "% of control", "setting": "[9]", "value": 85, "unit": "%"}]}
{"smiles": "CCC(=O)N1CCN(c2ccc(-n3c(=O)ccc4cnc5ccc(-c6cnc7ccccc7c6)cc5c43)cc2C(F)(F)F)CC1", "values": [{"measurement": "% of control", "setting": "[10]", "value": 0.7, "unit": "%"}, {"measurement": "% of control", "setting": "[11]", "value": 0.6, "unit": "%"}]}
{"smiles": "Cc1cc([C@@H](C)Nc2ccccc2C(=O)O)c2nc(N3CCOCC3)cc(=O)n2c1", "note": "[AZD-6482]", "values": [{"measurement": "% of control", "setting": "[12]", "value": 91, "unit": "%"}]}
{"smiles": "N#Cc1cccc(-c2c[nH]c3ncnc(N4CCOCC4)c23)c1", "values": [{"measurement": "% of inhibition", "setting": "[13]", "value": 22, "unit": "%"}, {"measurement": "% of control", "setting": "[14]", "value": 73, "unit": "%"}]}
